Test results taken from article PMC7255010, “Small-molecule activating SIRT6 elicits therapeutic effects and synergistically promotes anti-tumor activity of vitamin D3 in colorectal cancer” (Theranostics, 2020).
Several values for one entry are separate records, joined by “and”; a condition that tells them apart may be missing. Equal values may be shown once.

Experiments:
[1] = Pharmacokinetic studies in mice; type: in vivo; details: male, mouse, plasma, C57BL/6J mice
Description: Pharmacokinetic studies were performed by Shanghai Medicilon Inc, China, following standard protocols. Briefly, six-week-old male C57BL/6J mice were grouped randomly (n = 5 per group). […] Two administration formulations were prepared in the vehicle with 5% DMSO, 10% Solutol and 85% saline, with the pH adjusted to 7.0-8.0. After treatment, the mice were sacrificed, and their plasma samples were collected at 5 min, 15 min, 30 min, 1 h, 2 h, 4 h, 8 h, and 24 h. The drug concentration in plasma was analyzed by LC-MS/MS. Pharmacokinetic parameters were calculated using Analyst Software 1.6.3 from mean plasma concentration-time profiles. The area under the curve (AUC) was measured from time versus concentration data by the linear trapezoidal rule. […] The calculation was normalized to relative doses.

SIRT6 [2] = biological target: T1, SIRT6 (Homo sapiens, UniProt Q8N6T7); experiment: Cellular thermal shift assay (CETSA) in HCT116 cells; type: cell-based
T1 sequence (Q8N6T7 whole entry): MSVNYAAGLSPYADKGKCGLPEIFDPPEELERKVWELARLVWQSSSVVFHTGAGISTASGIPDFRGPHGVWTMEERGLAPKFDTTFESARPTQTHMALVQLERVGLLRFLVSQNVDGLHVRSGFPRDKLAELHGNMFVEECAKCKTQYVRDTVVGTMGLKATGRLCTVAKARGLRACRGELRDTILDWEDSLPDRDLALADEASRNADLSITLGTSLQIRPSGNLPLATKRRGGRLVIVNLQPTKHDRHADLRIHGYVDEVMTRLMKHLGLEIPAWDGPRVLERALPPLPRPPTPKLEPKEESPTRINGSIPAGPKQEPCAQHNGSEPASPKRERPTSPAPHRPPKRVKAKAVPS
Description: CETSA was conducted as previously described. HCT116 cells were seeded in 10-cm cell culture dishes and grown to ~90% confluence. […] Cell pellets were collected by centrifugation (1,000 × g, 5 min, 4 °C), resuspended in 600 μL of 1× PBS, and distributed into different 0.2-mL tubes, each with 40 μL of cell suspension. The tubes were heated at the indicated temperature endpoints (38.5-51.5 °C) for 3 min in a PCR thermocycler. Immediately after heating, the tubes were incubated at room temperature for another 3 min. The samples were subjected to two freeze-thaw cycles in liquid nitrogen. Each cell lysate was centrifuged (15,000 × g for 20 min at 4 °C), and 25 μL of supernatant was collected. The supernatants were lysed in 25 μL of 2× SDS loading buffer at 95 °C for 10 min. Then, the samples were centrifuged, and the supernatants were analyzed by western blotting. Quantification of the SIRT6 level was performed with ImageJ V4. The signal intensity of each protein band on the western blots was normalized to the signal intensity observed at 38.5 °C. The corresponding signal intensities were plotted against temperature in GraphPad Prism V7. Each data point is shown as the mean ± s.e.m. of four independent experiments.

FHC = experiment: Cell proliferation, CCK-8, non-cancerous colon cell line; type: cell-based; details: Homo sapiens, CCK-8, 48 h, Figure S6, mean ± s.e.m. of three experiments
FHC cells = experiment: LDH assay of cytotoxicity in FHC cells; type: cell-based; details: 48 h
Description: Cell cytotoxicity was assessed by measuring LDH release from damaged or dead cells using a Cytotoxicity LDH Assay Kit-WST (Dojindo) following the manufacturer's instructions. Briefly, 5 × 10^3 cells per well were plated in 96-well plates. […] The final DMSO concentration in the medium was 0.1%. The amount of LDH leakage from the cells was determined by measuring the absorbance at 490 nm using a microplate reader (Synergy H4 Hybrid Reader, BioTek). The percentage of cytotoxicity was calculated as follows: [(test sample - low control)/ (high control - low control)] × 100, where low control is the absorbance of the culture medium without any added extract, and high control is the absorbance of the culture medium in which the cells were treated with 1% (v/v) Triton X-100 to achieve 100% LDH release. Each data point is presented as the mean ± s.d. of three independent experiments.

[3] = test system: CRC cells (HCT116, HT29, and SW480); experiment: Calcein-AM/PI live-dead double staining; type: cell-based; details: 10 μM MDL-811, CRC cells
Description: Live-dead cell staining was performed following the protocol of a Calcein-AM/PI Double Stain Kit (Yeasen). Briefly, 3 × 10^4 cells per well were seeded into 24-well plates. […] Then, cell images were acquired with a fluorescence microscope (Nikon Inverted Research Microscope Eclipse Ti). For each assay, five random fields of view per well were imaged at 10× magnification.

HCT116 xenograft tumors = experiment: HCT116 CDX model; type: in vivo, BALB/c nude mice; details: 20 or 30 mg/kg intraperitoneally every other day for 16 days
Description: (§1) All animal studies were performed following federal and institutional guidelines approved by the Institutional Animal Care and Use Committee at Shanghai Jiao-Tong University School of Medicine. To establish the CDXs, HCT116 cells (1 × 10^6) suspended in 100 μL of 1× PBS were injected subcutaneously into the flanks of six-week-old male BALB/c nude mice. To establish the PDXs, primary tumors resected from two independent CRC patients (patient #1 and #2) were collected in the culture medium. The necrotic and supporting tissues were carefully removed using sterilized surgical blades. The gross tumor was cut into fragments (2-3 mm in diameter) and inoculated subcutaneously into the flanks of nude mice. The mice were monitored daily, and caliper measurements began when tumors became visible. The tumor volume was monitored every other day via calipers. The tumor volume was calculated using the following formula: (L × W ^2) / 2, where L and W refer to the tumor diameter along the longitudinal and transverse axes, respectively. When the mean tumor volume was approximately 100 to 250 mm^3, the mice were randomly grouped (n = 6 per group for CDXs, n = 8 per group for PDXs), and treatment was initiated. […] After treatment or if meeting the humane endpoint criteria, the mice were sacrificed by CO2 asphyxiation. The tumors were dissected, imaged, and weighed. […]

[4] = Body weights and behaviour of xenograft models; type: in vivo; details: CDX and PDX mice at the efficacy dosage
Description: as §1

SIRT6 [5] = biological target: T1, SIRT6; experiment: SIRT6 deacetylation on nucleosome substrates (western blot); type: biochemical; parameters: WT (wild-type) full-length human SIRT6 was inserted into the pET28a-LIC vector; made in house; host or cells: Escherichia coli BL21 (DE3); details: natural nucleosomes, dose-dependent
Description: In vitro deacetylation reactions on nucleosome substrates were performed as previously reported, [32]. Briefly, 5 μg of mononucleosomes purified from HeLa cells with a nucleosome preparation kit (Active Motif) and 0.2 μg of purified WT SIRT6 were incubated in 40 μL of HDAC buffer (50 mM Tris-HCl [pH 8.0], 2 mM NAD^+, and 150 mM NaCl) for 80 min at 30 °C. […] The reaction mixture was analyzed by western blotting.

[6] = 30 mg/kg, IP 30 mg/mL, mean of five mice

SMILES: Cc1cc(F)c(Br)cc1NS(=O)(=O)c1ccc(NS(=O)(=O)c2cc(Cl)cc(Cl)c2)cc1CN1CCOC[C@H]1C [MDL-811]
- AUC(0-inf) [1, 6]: 19700 ng·h/mL
- half-life [1, 6]: 1.38 h
- AUC0-t ([1]; 30 mg/kg, IP 30 mg/mL, mean of five mice, read-out: AUC0-t): 19600 ng·h/mL
- Cmax ([1]; 30 mg/kg, IP 30 mg/mL, mean of five mice, read-out: Cmax): 5330 ng/mL
- MRT ([1]; 30 mg/kg, IP 30 mg/mL, mean of five mice, read-out: MRT): 2.63 h
- tmax ([1]; 30 mg/kg, IP 30 mg/mL, mean of five mice, read-out: tmax): 0.5 h
- bioavailability ([1]; intraperitoneal, IP 30 mg/mL vs IV, ratio of AUC normalized to dose, read-out: F (bioavailability)): 93%
- Melting Temperature (Tm) of SIRT6 (SIRT6 [2]; 10 µM MDL-811, 24 h, HCT116 cells, DMSO 45.8 ± 0.3, mean ± s.e.m., four experiments): 47.6 ± 0.1 °C and 47.6 °C
- ΔTm at 10 µM (SIRT6 [2]; HCT-116): 1.8 ± 0.2 °C
- IC50 (FHC): 24.4 ± 0.5 µM
- cytotoxicity (LDH release) (FHC cells): low cytotoxic effect
- cell death, live-dead double staining [3]: did not cause observable cell death
- tumor growth (HCT116 xenograft tumors): strongly suppressed tumor growth in a dose-dependent manner
- weight loss and behavioral signs [4]: did not observe any significant weight loss or other abnormal behavioral signs
- deacetylation of H3K9Ac, H3K18Ac, and H3K56Ac (SIRT6 [5]): significantly enhanced the deacetylation of SIRT6 (H3K9Ac, H3K18Ac, and H3K56Ac)
